According to US10300065B2, “Method of treating or prevention of atherothrombotic events in patients with history of myocardial infarction” (ASTRAZENECA AB, priority 2015, dated 2019):

Test system: patients with a history of myocardial infarction
Assay: PEGASUS-TIMI 54 trial, efficacy endpoints (intention-to-treat / full analysis set)
Type: in vivo, human
From the text: The PEGASUS-TIMI 54 trial (also referred to as the PEGASUS trial or PEGASUS study herein) was a randomized, double-blind, placebo-controlled multinational clinical trial that enrolled over 21,000 patients at 1,161 sites in 31 countries. The protocol was approved by the relevant ethics committees at all participating sites. In the U.S., the PEGASUS trial was assigned a ClinicalTrials.gov number of NCT01225562.
Patients could be randomized regardless of their prior adenosine diphosphate (ADP) receptor blocker therapy or a lapse in therapy.
Randomization was performed using a central computerized telephone or web based system, and allocation was double-blind.
All patients enrolled in the PEGASUS trial were instructed to take open label aspirin at a dose of 75 to 150 mg daily.
A total of 1360 primary endpoint events would be required to provide approximately 90% power to detect a 20% relative risk reduction with the 90 mg twice daily dose and approximately 83% power to detect a 19% relative risk reduction with the 60 mg twice daily dose when each dose was compared individually with placebo. The primary efficacy analysis was conducted on an intention-to-treat basis, with each of the two doses individually compared to placebo, as a time to event analysis from randomization to the first occurrence of any element of the primary composite endpoint: cardiovascular death, myocardial infarction, or stroke. […] An exploratory analysis of both doses combined compared with placebo was prespecified.

[1] = 60 mg bd, 5695 patients with a coronary stent
[2] = 60 mg bid (N = 7045), at 3 years
[3] = 60 mg bid vs. placebo (N = 6958)
[4] = 90 mg bd, 5651 patients with a coronary stent

Compound: CCCSc1nc(N[C@@H]2C[C@H]2c2ccc(F)c(F)c2)c2nnn([C@@H]3C[C@H](OCCO)[C@@H](O)[C@H]3O)c2n1 [Ticagrelor, (1S,2S,3R,5S)-3-[7-{[(1R,2S)-2-(3,4-difluorophenyl)cyclopropyl]amino}-5-(propylthio)-3H-[1,2,3]-triazolo[4,5-d]pyrimidin-3-yl]-5-(2-hydroxyethoxy)cyclopentane-1,2-diol]
- Time to first stent thrombosis: HR (60 mg bd vs placebo): 0.82
- Composite of CV Death/MI/Stroke, landmark: KM % at 12 months (60 mg bd, 1-360 days): 2.7%
- Composite of CV Death/MI/Stroke, landmark: Patients with events (60 mg bd, 1-360 days): 189
- Composite of CV Death/MI/Stroke, landmark: Patients with events (%) (60 mg bd, 1-360 days): (2.7%)
- Stent thrombosis: Patients (%) with events [1]: (0.7%)
- Stent thrombosis: Patients with events [1]: 41
- Composite of CV Death/MI/Stroke, landmark: Patients with events (60 mg bd, 361 days or more): 298
- Composite of CV Death/MI/Stroke, landmark: Patients with events (%) (60 mg bd, 361 days or more): (4.4%)
- Stent thrombosis: KM % (60 mg bd, at 36 months): 0.8%
- Composite of CV Death/MI/Stroke, landmark: KM % at 24 months (60 mg bd, cumulative from day 361 to day 720): 2.7%
- Composite of CV Death/MI/Stroke, landmark: KM % at 36 months (60 mg bd, cumulative from day 361 to day 1080): 5.2%
- MI: ARR (%) (60 mg bid): 0.72%
- MI: NNT (60 mg bid): 139
- Stroke: ARR (%) (60 mg bid): 0.47%
- Stroke: NNT (60 mg bid): 213
- All Stroke: n (60 mg bid (N = 7045)): 91
- Cardiovascular Death or Myocardial infarction: 3-year Kaplan-Meier estimate (60 mg bid (N = 7045)): (6.77) %
- Cardiovascular Death or Myocardial infarction: n (60 mg bid (N = 7045)): 422
- Cardiovascular Death, Myocardial infarction, or Stroke: 3-year Kaplan-Meier estimate (60 mg bid (N = 7045)): 7.77%
- Cardiovascular Death, Myocardial infarction, or Stroke: n (60 mg bid (N = 7045)): 487
- Cardiovascular Death: n (60 mg bid (N = 7045)): 174
- Coronary Heart Disease Death or Myocardial infarction: 3-year Kaplan-Meier estimate (60 mg bid (N = 7045)): (5.57) %
- Coronary Heart Disease Death or Myocardial infarction: n (60 mg bid (N = 7045)): 360
- Coronary Heart Disease Death, Myocardial infarction, or Stroke: 3-year Kaplan-Meier estimate (60 mg bid (N = 7045)): (7.09) %
- Coronary Heart Disease Death, Myocardial infarction, or Stroke: n (60 mg bid (N = 7045)): 445
- Coronary Heart Disease Death: 3-year Kaplan-Meier estimate (60 mg bid (N = 7045)): (1.72) %
- Coronary Heart Disease Death: n (60 mg bid (N = 7045)): 106
- Death from any cause: n (60 mg bid (N = 7045)): 289
- Hospitalization for Unstable Angina: n (60 mg bid (N = 7045)): 39
- Ischemic Stroke: 3-year Kaplan-Meier estimate (60 mg bid (N = 7045)): (1.28) %
- Ischemic Stroke: n (60 mg bid (N = 7045)): 78
- Myocardial infarction as first-occurring component of the composite: n (patients with event) (60 mg bid (N = 7045)): 283
- Myocardial infarction: n (60 mg bid (N = 7045)): 285
- Stroke as first-occurring component of the composite: n (patients with event) (60 mg bid (N = 7045)): 88
- Transient Ischemic Attack: n (60 mg bid (N = 7045)): 17
- Urgent Coronary Revascularization for Unstable Angina: n (60 mg bid (N = 7045)): 62
- Hospitalization for Unstable Angina: (%) [2]: (0.61) %
- Transient Ischemic Attack: (%) [2]: (0.27) %
- Urgent Coronary Revascularization for Unstable Angina: (%) [2]: (0.95) %
- Cardiovascular Death or Myocardial infarction: HR (60 mg bid vs Placebo): 0.85
- Cardiovascular Death, Myocardial infarction, or Stroke: HR (60 mg bid vs Placebo): 0.84
- Cardiovascular Death: HR (60 mg bid vs Placebo): 0.83
- Coronary Heart Disease Death or Myocardial infarction: HR (60 mg bid vs Placebo): 0.84
- Coronary Heart Disease Death, Myocardial infarction, or Stroke: HR (60 mg bid vs Placebo): 0.83
- Coronary Heart Disease Death: HR (60 mg bid vs Placebo): 0.80
- Coronary stent thrombosis: RRR (60 mg bid vs Placebo): 18%
- Death from any cause: HR (60 mg bid vs Placebo): 0.89
- Hospitalization for Unstable Angina: HR (60 mg bid vs Placebo): 1.05
- Ischemic Stroke: HR (60 mg bid vs Placebo): 0.76
- Transient Ischemic Attack: HR (60 mg bid vs Placebo): 1.00
- Urgent Coronary Revascularization for Unstable Angina: HR (60 mg bid vs Placebo): 0.82
- coronary heart disease death, myocardial infarction, or stroke: RRR (60 mg bid vs Placebo): 17%
- Irreversible harm (CV death, MI, stroke, ICH, or fatal bleeding): HR [3]: 0.86
- Irreversible harm (CV death, MI, stroke, ICH, or fatal bleeding): RRR (%) [3]: 14%
- Net clinical benefit (CV death, MI, stroke, or TIMI major bleeding): HR [3]: 0.95
- Net clinical benefit (CV death, MI, stroke, or TIMI major bleeding): RRR (%) [3]: 5%
- ischemic events prevented if 10,000 patients were started on treatment versus placebo (60 mg bid, intention-to-treat data): 42
- Time to first stent thrombosis: HR (90 mg bd vs placebo): 0.64
- Composite of CV Death/MI/Stroke, landmark: KM % at 12 months (90 mg bd, 1-360 days): 2.8%
- Composite of CV Death/MI/Stroke, landmark: Patients with events (90 mg bd, 1-360 days): 198
- Composite of CV Death/MI/Stroke, landmark: Patients with events (%) (90 mg bd, 1-360 days): (2.8%)
- Stent thrombosis: Patients (%) with events [4]: (0.6%)
- Stent thrombosis: Patients with events [4]: 32
